T1: antibody-β-glucuronidase fusion protein (Homo sapiens, UniProt P08236)
T1 construct: antibody part only targets
T1 sequence (P08236 23-651): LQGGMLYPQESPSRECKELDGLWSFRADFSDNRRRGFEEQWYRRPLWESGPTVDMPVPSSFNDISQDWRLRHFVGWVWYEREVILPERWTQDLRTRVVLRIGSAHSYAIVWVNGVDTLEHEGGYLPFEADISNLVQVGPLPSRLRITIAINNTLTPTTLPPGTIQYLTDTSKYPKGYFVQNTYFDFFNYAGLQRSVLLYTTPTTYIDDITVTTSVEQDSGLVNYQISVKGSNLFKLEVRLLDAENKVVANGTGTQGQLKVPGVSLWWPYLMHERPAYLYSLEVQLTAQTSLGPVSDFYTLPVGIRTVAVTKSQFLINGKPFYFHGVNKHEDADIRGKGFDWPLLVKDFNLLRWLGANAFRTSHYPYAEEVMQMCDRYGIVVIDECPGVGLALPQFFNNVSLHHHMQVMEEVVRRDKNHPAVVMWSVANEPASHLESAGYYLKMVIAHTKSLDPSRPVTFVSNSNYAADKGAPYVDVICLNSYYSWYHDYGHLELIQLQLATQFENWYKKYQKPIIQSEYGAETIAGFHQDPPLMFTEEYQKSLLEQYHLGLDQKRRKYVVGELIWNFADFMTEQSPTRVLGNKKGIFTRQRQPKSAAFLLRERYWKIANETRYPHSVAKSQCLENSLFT


Legend:
[1] = molecular target: T1, antibody-β-glucuronidase fusion protein; experiment: Km and Vmax determination, enzymatic cleavage by fusion protein monitored by HPLC; assay type: biochemical; conditions: 100 mM phosphate buffer + 1 mg/ml BSA, pH 7.2, 37° C., substrate 10-10000 μM
Description: (§1) Comparison of Km- and V max-values of natural and improved substrate for antibody β-glucuronidase fusion protein
(§2) For Km- and Vmax-determination 3'-N-[4-(beta-D-Glucuronyloxy)-3-nitro-benzyloxycarbonyl]-doxorubicin and prodrug A should be diluted in the range of 10-10000 μM in 100 mM phosphate buffer+1 mg/ml BSA, pH 7.2. Enzymatic cleavage should be done with constant amounts of fusion protein at 37° C. Cleavage can be monitored by HPLC analysis. Km- and Vmax-values can be calculated with the software program GraFit 2.0 (Erithacus Software Ltd.).
(§3) The HPLC apparatus consisted of an autosampler (Abimed, model 231), an automatic sample extraction system (AASP, Varian) equipped with minicartridges containing C 18 reversed phase silica gel (Analytichem), a gradient pump (Gynkotek, model 480), a fluorescence detector (Shimazdu RF 535, Excitation: 495 nm, Emission: 560 nm). Before sample injection the minicartridges were preconditioned with 2.5 ml methanol and 1.5 ml phosphate buffer, pH 6. Analytes retained on the reversed phase silica gel were then eluted by valve switching and connection of the minicartridges to the mobile phase. Chromatography was performed on reversed phase material (Nucleosil C 18, 5 μm particle size, 120 mm length, 4,5 mm I.D.) and gradient elution. Elution was done by a gradient composed of 2 components (A: 20 mM phosphate, pH 3, B: acetonitrile). […]

[2] = substrate: [H][C@]1(O[C@H]2C[C@H](NC(=O)OCc3ccc(O[C@@H]4O[C@H](C(=O)O)[C@@H](O)[C@H](O)[C@H]4O)c([N+](=O)[O-])c3)[C@H](O)[C@H](C)O2)C[C@](O)(C(=O)CO)Cc2c(O)c3c(c(O)c21)C(=O)c1c(OC)cccc1C3=O; experiment: as above; assay type: biochemical, human; conditions: other: 100 mM phosphate buffer + 1 mg/ml BSA, pH 7.2, 37° C., substrate 10-10000 μM
Description: as §1, §2, §3

Molecule	Km [1] [µM]	Vmax [1]	Km [2] [µM]	Vmax [2] [nmol/µg/min]
COc1cccc2c1C(=O)c1c(O)c3c(c(O)c1C2=O)C[C@@](O)(C(=O)CO)C[C@@H]3O[C@H]1C[C@H](NC(=O)OCc2ccc(O[C@@H]3O[C@H]([C@H](O)C(=O)O)[C@H](O)[C@H]3O)c([N+](=O)[O-])c2)[C@H](O)[C@H](C)O1 [Prodrug A]	< 500	~ 0.635 nmol/μg/min	–	–
antibody-β-glucuronidase fusion protein (Homo sapiens) (protein, antibody part only targets) LQGGMLYPQESPSRECKELDGLWSFRADFSDNRRRGFEEQWYRRPLWESGPTVDMPVPSSFNDISQDWRLRHFVGWVWYEREVILPERWTQDLRTRVVLRIGSAHSYAIVWVNGVDTLEHEGGYLPFEADISNLVQVGPLPSRLRITIAINNTLTPTTLPPGTIQYLTDTSKYPKGYFVQNTYFDFFNYAGLQRSVLLYTTPTTYIDDITVTTSVEQDSGLVNYQISVKGSNLFKLEVRLLDAENKVVANGTGTQGQLKVPGVSLWWPYLMHERPAYLYSLEVQLTAQTSLGPVSDFYTLPVGIRTVAVTKSQFLINGKPFYFHGVNKHEDADIRGKGFDWPLLVKDFNLLRWLGANAFRTSHYPYAEEVMQMCDRYGIVVIDECPGVGLALPQFFNNVSLHHHMQVMEEVVRRDKNHPAVVMWSVANEPASHLESAGYYLKMVIAHTKSLDPSRPVTFVSNSNYAADKGAPYVDVICLNSYYSWYHDYGHLELIQLQLATQFENWYKKYQKPIIQSEYGAETIAGFHQDPPLMFTEEYQKSLLEQYHLGLDQKRRKYVVGELIWNFADFMTEQSPTRVLGNKKGIFTRQRQPKSAAFLLRERYWKIANETRYPHSVAKSQCLENSLFT	–	–	1300	0.635

Source: US5621002A, “Prodrugs for enzyme mediated activation” (Behringwerke Aktiengesellschaft, priority 1993, dated 1997)
